Reference: US9204653B2, “5-fluoro pyrimidine derivatives” (DOW AGROSCIENCES LLC, priority 2008, dated 2015)
Where two headings read alike, the source gives them in different places.

Assays:
[1] = system: Mycosphaerella graminicola; Anamorph: Septoria tritici; Bayer Code SEPTTR; assay: Leaf blotch of wheat, foliar fungicide treatment, one day protectant (1DP) or three day curative (3DC); type: in vivo, Septoria tritici on wheat plants (variety Yuma); conditions: Zymoseptoria tritici; for pest or weed control at 200 ppm / pest or weed control at 50 ppm: % disease control rating
[2] = system: Venturia inaequalis; Bayer Code VENTIN; assay: Apple scab; type: in vivo; conditions: 24 h, % disease control rating, one day protectant; for pest or weed control at 25 ppm: read-out: VENTIN 1 DP 25 ppm; for pest or weed control at 75 ppm: read-out: VENTIN 1 DP 75 ppm
[3] = 24 h, one day protectant (1DP), 25 ppm, rating of percent disease control, read-out: SETTTR 1DP 25 ppm
[4] = 24 h, one day protectant (1DP), rating of percent disease control, read-out: SEPTTR 1DP 100 ppm
[5] = 72 h, three day curative (3DC), 25 ppm, rating of percent disease control, read-out: SEPTTR 3DC 25 ppm
[6] = 72 h, three day curative (3DC), rating of percent disease control, read-out: SEPTTR 3DC 100 ppm
[7] = 24 h, one day protectant (1DP), 25 ppm, percent disease control rating, read-out: SETTTR 1DP 25 ppm
[8] = 24 h, one day protectant (1DP), percent disease control rating, read-out: SEPTTR 1DP 100 ppm
[9] = 72 h, three day curative (3DC), 25 ppm, percent disease control rating, read-out: SEPTTR 3DC 25 ppm
[10] = 72 h, three day curative (3DC), percent disease control rating, read-out: SEPTTR 3DC 100 ppm
[11] = 24 h, one day protectant, 25 ppm, rating of percent disease control, read-out: SETTTR 1DP 25 ppm
[12] = 24 h, one day protectant, rating of percent disease control, read-out: SEPTTR 1DP 100 ppm
[13] = 72 h, three day curative, 25 ppm, rating of percent disease control, read-out: SEPTTR 3DC 25 ppm
[14] = 72 h, three day curative, rating of percent disease control, read-out: SEPTTR 3DC 100 ppm

SMILES	pest or weed control at 25 ppm [1, 3]	pest or weed control at 100 ppm [1, 4]	pest or weed control at 25 ppm [1, 5]	pest or weed control at 100 ppm [1, 6]	pest or weed control at 25 ppm [2]	pest or weed control at 75 ppm [2]	also measured
Nc1nc(OCc2cccc(F)c2)ncc1F [Compound 236]	76 to 100%	76 to 100%	76 to 100%	76 to 100%	76 to 100%	76 to 100%	–
COc1cccc(COc2ncc(F)c(N)n2)c1 [Compound 35]	–	–	–	–	76 to 100%	76 to 100%	pest or weed control at 25 ppm [1, 7]: 76 to 100%; pest or weed control at 100 ppm [1, 8]: 76 to 100%; pest or weed control at 25 ppm [1, 9]: 76 to 100%; pest or weed control at 100 ppm [1, 10]: 76 to 100%
Cc1ccc(COc2ncc(F)c(/N=C/N(C)C)n2)cc1 [Compound 469]	76 to 100%	76 to 100%	76 to 100%	76 to 100%	51 to 75%	76 to 100%	–
Cc1cc(C)c(COc2ncc(F)c(N)n2)c(C)c1 [Compound 510]	51 to 75%	76 to 100%	51 to 75%	76 to 100%	76 to 100%	76 to 100%	–
COc1ccc(COc2ncc(F)c(N)n2)cc1 [Compound 734]	76 to 100%	76 to 100%	76 to 100%	76 to 100%	76 to 100%	76 to 100%	–
Nc1nc(OCc2cccs2)ncc1F [Compound 5, 5-Fluoro-2-(thiophen-2-ylmethoxy)-pyrimidin-4-ylamine]	–	–	–	–	76 to 100%	76 to 100%	pest or weed control at 25 ppm [1, 7]: 76 to 100%; pest or weed control at 100 ppm [1, 8]: 76 to 100%; pest or weed control at 25 ppm [1, 9]: 76 to 100%; pest or weed control at 100 ppm [1, 10]: 76 to 100%
CC(Oc1ncc(F)c(N)n1)c1ccc(F)cc1 (stereo not shown) [Compound 3, 5-Fluoro-2-[1-(4-fluorophenyl)ethoxy]pyrimidin-4-ylamine]	–	–	–	–	0 to 25%	76 to 100%	pest or weed control at 25 ppm [1, 7]: 76 to 100%; pest or weed control at 100 ppm [1, 8]: 76 to 100%; pest or weed control at 25 ppm [1, 9]: 76 to 100%; pest or weed control at 100 ppm [1, 10]: 76 to 100%
Nc1nc(OCc2cc3ccccc3s2)ncc1F [Compound 345]	76 to 100%	76 to 100%	76 to 100%	76 to 100%	51 to 75%	76 to 100%	–
Cc1cc(C)c(COc2ncc(F)c(/N=C/N(C)C)n2)c(C)c1 [Compound 347]	76 to 100%	76 to 100%	76 to 100%	76 to 100%	76 to 100%	26 to 50%	–
Nc1nc(OCc2ccccc2)ncc1F [Compound 46]	–	–	–	–	76 to 100%	76 to 100%	pest or weed control at 25 ppm [1, 7]: 76 to 100%; pest or weed control at 100 ppm [1, 8]: 76 to 100%; pest or weed control at 25 ppm [1, 9]: 76 to 100%; pest or weed control at 100 ppm [1, 10]: 76 to 100%
CN(C)/C=N/c1nc(OCc2ccc(F)cc2)ncc1F [Compound 20, N-[5-Fluoro-2-(4-fluorobenzyloxy)pyrimidin-4-yl]-N,N dimethyl-formamidine]	–	–	–	–	51 to 75%	76 to 100%	pest or weed control at 25 ppm [1, 7]: 76 to 100%; pest or weed control at 100 ppm [1, 8]: 76 to 100%; pest or weed control at 25 ppm [1, 9]: 76 to 100%; pest or weed control at 100 ppm [1, 10]: 76 to 100%
Cn1nc(-c2ccccc2)nc1-c1ccccc1COc1ncc(F)c(N)n1 [Compound 320]	0 to 25%	0 to 25%	26 to 50%	26 to 50%	–	–	–
CCOc1ccccc1COc1ncc(F)c(N)n1 [Compound 328]	76 to 100%	76 to 100%	76 to 100%	76 to 100%	–	–	–
CN(Oc1ncc(F)c(N)n1)C(=O)OC(C)(C)C [Compound 50, O-(4-Amino-5-fluoropyrimidin-2-yl)-t-butyl N-methyl-N-hydroxycarbamate]	–	–	–	–	–	–	pest or weed control at 25 ppm [1, 7]: 26 to 50%; pest or weed control at 100 ppm [1, 8]: 76 to 100%; pest or weed control at 25 ppm [1, 9]: 26 to 50%; pest or weed control at 100 ppm [1, 10]: 76 to 100%
Fc1cnc(OCc2ccccc2)nc1NNC1CCCCC1 [Compound 493]	0 to 25%	26 to 50%	0 to 25%	0 to 25%	–	–	–
Fc1cnc(OCc2c(Cl)cccc2Cl)nc1NCc1cccs1 [Compound 835]	–	–	–	–	–	–	pest or weed control at 200 ppm ([1]; 24 h, one day protectant): 76 to 100%
CS(=O)(=O)Nc1nc(OCc2ccccc2)ncc1F [Compound 1008]	–	–	–	–	–	–	pest or weed control at 25 ppm ([1]; 24 h, one day protectant (1DP), 25 ppm (first 1DP column), percent control rating, read-out: SETTTR 1DP 25 ppm): 0 to 25%; pest or weed control at 25 ppm ([1]; 24 h, one day protectant (1DP), 25 ppm as printed (second 1DP column), percent control rating, read-out: SETTTR 1DP 25 ppm): 0 to 25%; pest or weed control at 25 ppm ([1]; 72 h, three day curative (3DC), 25 ppm, percent control rating, read-out: SEPTTR 3DC 25 ppm): 0 to 25%; pest or weed control at 100 ppm ([1]; 72 h, three day curative (3DC), percent control rating, read-out: SEPTTR 3DC 100 ppm): 0 to 25%
N#Cc1cccc(COc2ncc(F)c(NC(=S)NCc3ccccc3F)n2)c1 [Compound 504]	0 to 25%	51 to 75%	0 to 25%	0 to 25%	–	–	–

SMILES	pest or weed control at 25 ppm [1, 3]	pest or weed control at 100 ppm [1, 4]	pest or weed control at 25 ppm [1, 5]	pest or weed control at 100 ppm [1, 6]	pest or weed control at 25 ppm [2]	pest or weed control at 75 ppm [2]	also measured
COc1ccc(COc2ncc(F)c(NC3CC3)n2)cc1 [Compound 823]	–	–	–	–	–	–	pest or weed control at 200 ppm ([1]; 24 h, one day protectant): 76 to 100%
Cc1ccc(COc2ncc(F)c(N)n2)c(C)c1 [Compound 323]	76 to 100%	76 to 100%	76 to 100%	76 to 100%	–	–	–
Nc1nc(OC(=O)c2snc(Cl)c2Cl)ncc1F [Compound 428]	51 to 75%	51 to 75%	26 to 50%	76 to 100%	–	–	–
CC[Si](CC)(CC)Nc1nc(OCc2cccc(F)c2)ncc1F [Compound 346]	76 to 100%	76 to 100%	76 to 100%	76 to 100%	–	–	–
Fc1ccccc1CNc1nc(OCc2ccc3c(c2)OCO3)ncc1F [Compound 928]	–	–	–	–	–	–	pest or weed control at 50 ppm ([1]; 24 h, one day protectant): 76 to 100%; pest or weed control at 200 ppm ([1]; 24 h, one day protectant): 76 to 100%
Fc1ccccc1CNc1nc(OCc2ccc(OC(F)(F)F)cc2)ncc1F [Compound 953]	–	–	–	–	–	–	pest or weed control at 50 ppm ([1]; 24 h, one day protectant): 26 to 50%; pest or weed control at 200 ppm ([1]; 24 h, one day protectant): 76 to 100%
COc1ccccc1COc1ncc(F)c(NC(=O)Nc2ccccc2F)n1 [Compound 329]	0 to 25%	0 to 25%	0 to 25%	0 to 25%	–	–	–
N#Cc1cccc(COc2ncc(F)c(N)n2)c1 [Compound 33]	–	–	–	–	–	–	pest or weed control at 25 ppm [1, 7]: 76 to 100%; pest or weed control at 100 ppm [1, 8]: 76 to 100%; pest or weed control at 25 ppm [1, 9]: 76 to 100%; pest or weed control at 100 ppm [1, 10]: 76 to 100%
Nc1nc(OCc2ccc3ccccc3n2)ncc1F [Compound 465]	76 to 100%	76 to 100%	76 to 100%	76 to 100%	–	–	–
Cn1ccc(COc2ncc(F)c(NC(=S)NCc3ccccc3F)n2)n1 [Compound 595]	–	–	–	–	–	–	pest or weed control at 25 ppm [1, 11]: 26 to 50%; pest or weed control at 100 ppm [1, 12]: 76 to 100%; pest or weed control at 25 ppm [1, 13]: 0 to 25%; pest or weed control at 100 ppm [1, 14]: 0 to 25%
Fc1cnc(OCc2ccc(Cl)cc2Cl)nc1NCc1ccc(Cl)cc1 [Compound 942]	–	–	–	–	–	–	pest or weed control at 50 ppm ([1]; 24 h, one day protectant): 76 to 100%; pest or weed control at 200 ppm ([1]; 24 h, one day protectant): 76 to 100%
CCCCCCOc1ncc(F)c(N[Si](CC)(CC)CC)n1 [Compound 658]	–	–	–	–	–	–	pest or weed control at 25 ppm [1, 11]: 0 to 25%; pest or weed control at 100 ppm [1, 12]: 51 to 75%; pest or weed control at 25 ppm [1, 13]: 0 to 25%; pest or weed control at 100 ppm [1, 14]: 51 to 75%
Nc1nc(Oc2ccc(Cl)c3ccccc23)ncc1F [Compound 378]	51 to 75%	76 to 100%	76 to 100%	76 to 100%	–	–	–
COc1cccc(COc2ncc(F)c(NC(=S)NCc3ccccc3F)n2)c1 [Compound 54]	–	–	–	–	–	–	pest or weed control at 25 ppm [1, 7]: 51 to 75%; pest or weed control at 100 ppm [1, 8]: 76 to 100%; pest or weed control at 25 ppm [1, 9]: 0 to 25%; pest or weed control at 100 ppm [1, 10]: 0 to 25%
Fc1cnc(OCc2cccc(C(F)(F)F)c2)nc1NCc1cccs1 [Compound 806]	–	–	–	–	–	–	pest or weed control at 200 ppm ([1]; 24 h, one day protectant): 76 to 100%
COc1cc(COc2ncc(F)c(N)n2)c(OC)cc1C [Compound 450]	76 to 100%	76 to 100%	76 to 100%	51 to 75%	–	–	–
N#Cc1ccnc(COc2ncc(F)c(N)n2)c1 [Compound 522]	0 to 25%	26 to 50%	0 to 25%	0 to 25%	–	–	–
CC(Oc1ncc(F)c(NC(=O)c2ccccc2)n1)c1ccc(F)cc1 (stereo not shown) [Compound 149]	–	–	–	–	–	–	pest or weed control at 25 ppm [1, 7]: 26 to 50%; pest or weed control at 100 ppm [1, 8]: 76 to 100%; pest or weed control at 25 ppm [1, 9]: 0 to 25%; pest or weed control at 100 ppm [1, 10]: 51 to 75%
